Broadly, the IC50 is the concentration needed to halve the response being measured. As a reminder, the Ki is the equilibrium dissociation constant of an inhibitor or competing ligand from its target. Broadly, the Kd is the free concentration of one partner at which half of the binding sites on the other are occupied at equilibrium, for simple one-to-one binding. For orientation: pIC50 means the IC50 on a negative log10 scale, so that one unit is a factor of ten. The low end stands for a high IC50, the high end for a low IC50.

Structures are written as SMILES.

The source of these data is ChEMBL document CHEMBL5260798, “Structural Analysis of Chemokine Receptor-Ligand Interactions” (J Med Chem, 2017).

Experiment [1] concerns the target T1, C-X-C chemokine receptor type 3 (Homo sapiens, UniProt P49682).
T1 sequence (P49682 whole entry): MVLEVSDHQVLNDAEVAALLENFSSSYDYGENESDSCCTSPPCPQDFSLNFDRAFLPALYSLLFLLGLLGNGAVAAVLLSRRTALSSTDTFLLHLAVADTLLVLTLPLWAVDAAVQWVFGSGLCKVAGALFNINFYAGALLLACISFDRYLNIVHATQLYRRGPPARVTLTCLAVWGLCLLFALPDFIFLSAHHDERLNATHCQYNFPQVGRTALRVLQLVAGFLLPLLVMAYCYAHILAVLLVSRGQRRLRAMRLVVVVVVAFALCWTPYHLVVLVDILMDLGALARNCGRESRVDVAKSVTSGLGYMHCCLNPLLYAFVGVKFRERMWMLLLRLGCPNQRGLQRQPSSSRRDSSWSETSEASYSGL
Briefly: Inhibition of human recombinant CXCR3.

Experiment [2] deals with T1, C-X-C chemokine receptor type 3. Briefly: Inhibition of human wild type CXCR3.
The nature of experiment [3]: Inhibition of CXCR4-Y251A mutant (unknown origin). The arrangement: species or system Homo sapiens.
Experiment [4] addresses C-X-C chemokine receptor type 4 (Homo sapiens, UniProt P61073). Description: Binding affinity to CXCR4 (unknown origin) assessed as inhibition constant.
In experiment [5] the target is T2, C-X-C chemokine receptor type 2 (Homo sapiens, UniProt P25025).
T2 sequence (P25025 whole entry): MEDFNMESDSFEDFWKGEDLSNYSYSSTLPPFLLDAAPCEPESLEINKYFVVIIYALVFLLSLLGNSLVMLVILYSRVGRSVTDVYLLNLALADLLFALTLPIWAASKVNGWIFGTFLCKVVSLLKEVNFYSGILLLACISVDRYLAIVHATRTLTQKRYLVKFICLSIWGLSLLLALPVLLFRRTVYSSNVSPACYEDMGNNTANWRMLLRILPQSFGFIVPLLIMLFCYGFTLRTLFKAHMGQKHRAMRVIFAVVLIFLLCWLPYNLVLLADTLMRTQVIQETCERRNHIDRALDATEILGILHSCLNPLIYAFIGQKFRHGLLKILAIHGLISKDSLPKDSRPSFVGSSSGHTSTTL
Description: Binding affinity to wild type human CXCR2 assessed as dissociation constant.

For experiment [6], the target named is C-C chemokine receptor type 2 (Homo sapiens, UniProt P41597). Description: Binding affinity to CCR2 (unknown origin) assessed as inhibition constant.
Sequence of C-C chemokine receptor type 2 (P41597 whole entry): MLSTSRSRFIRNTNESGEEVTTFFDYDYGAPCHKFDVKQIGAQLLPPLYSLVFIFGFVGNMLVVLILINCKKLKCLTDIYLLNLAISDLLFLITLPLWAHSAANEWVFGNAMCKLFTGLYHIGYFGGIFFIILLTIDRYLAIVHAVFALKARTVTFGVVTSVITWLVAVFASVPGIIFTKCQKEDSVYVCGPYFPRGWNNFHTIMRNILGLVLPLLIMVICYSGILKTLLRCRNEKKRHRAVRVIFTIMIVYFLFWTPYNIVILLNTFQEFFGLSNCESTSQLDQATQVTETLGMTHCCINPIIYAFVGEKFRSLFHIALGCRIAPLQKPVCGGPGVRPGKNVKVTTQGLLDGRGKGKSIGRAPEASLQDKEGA
Experiment [7] addresses T3, C-C chemokine receptor type 5 (Homo sapiens, UniProt P51681). Description: Inhibition of wild type CCR5 (unknown origin).
Experiment [8] concerns the target T3, C-C chemokine receptor type 5. Briefly: Inhibition of human CCR5.
A short description of experiment [9]: Binding affinity to CXCR4-Y251A mutant (unknown origin) assessed as […]. The arrangement: species or system Homo sapiens.
The target of experiment [10] is C-C chemokine receptor type 8 (Homo sapiens, UniProt P51685). Briefly: Inhibition of CCR8 mutant (unknown origin).
Sequence of C-C chemokine receptor type 8 (P51685 whole entry, looked up, change not shown): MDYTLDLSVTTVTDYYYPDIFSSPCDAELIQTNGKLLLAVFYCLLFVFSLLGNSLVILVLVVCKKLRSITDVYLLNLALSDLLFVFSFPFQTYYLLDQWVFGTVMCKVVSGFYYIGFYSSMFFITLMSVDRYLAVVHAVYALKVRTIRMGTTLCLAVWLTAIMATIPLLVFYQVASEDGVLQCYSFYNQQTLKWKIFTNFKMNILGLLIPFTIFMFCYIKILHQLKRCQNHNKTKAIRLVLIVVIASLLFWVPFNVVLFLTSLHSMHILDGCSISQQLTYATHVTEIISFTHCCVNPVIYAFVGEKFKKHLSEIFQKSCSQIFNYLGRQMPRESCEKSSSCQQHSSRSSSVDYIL

Sequence of C-X-C chemokine receptor type 4 (P61073 whole entry): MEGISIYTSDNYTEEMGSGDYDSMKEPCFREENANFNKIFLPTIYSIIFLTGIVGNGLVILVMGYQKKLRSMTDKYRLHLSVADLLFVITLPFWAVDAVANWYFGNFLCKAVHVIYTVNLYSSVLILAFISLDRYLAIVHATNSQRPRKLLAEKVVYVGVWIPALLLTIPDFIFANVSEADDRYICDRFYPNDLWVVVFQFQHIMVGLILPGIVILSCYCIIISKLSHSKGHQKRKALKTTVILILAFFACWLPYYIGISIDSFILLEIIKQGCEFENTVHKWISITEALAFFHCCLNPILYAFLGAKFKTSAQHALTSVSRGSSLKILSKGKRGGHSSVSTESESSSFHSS
T3 sequence (P51681 whole entry): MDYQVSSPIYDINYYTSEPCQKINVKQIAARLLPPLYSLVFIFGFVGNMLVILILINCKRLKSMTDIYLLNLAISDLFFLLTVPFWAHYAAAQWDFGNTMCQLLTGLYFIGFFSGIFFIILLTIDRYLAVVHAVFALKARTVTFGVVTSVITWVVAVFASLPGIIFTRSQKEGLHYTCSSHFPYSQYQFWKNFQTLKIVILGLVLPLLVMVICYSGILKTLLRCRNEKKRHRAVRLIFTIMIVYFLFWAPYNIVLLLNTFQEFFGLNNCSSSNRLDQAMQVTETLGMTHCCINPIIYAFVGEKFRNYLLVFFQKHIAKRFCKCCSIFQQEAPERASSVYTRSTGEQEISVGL

With `CCOc1ccc(-n2c([C@@H](C)N(Cc3cccnc3)C(=O)Cc3ccc(F)c(C(F)(F)F)c3)nc3ncccc3c2=O)cc1`, the half-maximal inhibitory concentration (IC50) in [1] and in experiment [2] was 0.0631 µM in each case.
With `CCCCN1C(=O)[C@H](CC2CCCCC2)NC(=O)C12CCN(Cc1ccc(Oc3ccc(C(=O)O)cc3)cc1)CC2`, in [3], the concentration for half-maximal inhibition (IC50) came out at 0.0167 µM.
Consider `CCCN(CCC)CCCCN(C)Cc1ccc(CN(Cc2ncc[nH]2)Cc2nccn2C)cc1`, for which the inhibition constant (Ki) in experiment [4] is 0.00061 µM.
With `C(CCCN1CCCNCCNCCCNCC1)CCN1CCCNCCNCCCNCC1`, the Ki in [4] is 2.3 µM.
As to `CC(=O)N1CCC(C(=O)N(CCCN2CCC(Cc3ccc(C(N)=O)cc3)CC2)c2ccc(C)c(Cl)c2)CC1`, in experiment [3], the IC50 came out at 0.02 µM.
`NCCCC[C@H](NC(=O)[C@@H]1Cc2ccccc2CN1C(=O)CCC(=O)c1ccccc1)C(=O)NCC(c1ccccc1)c1ccccc1`: the IC50 in experiment [2] was 1 µM.
On to `C[C@H](NC(=O)[C@H](CCCNC(=N)N)NC(=O)c1ccc(CNCc2ccccn2)cc1)c1cccc2ccccc12`, for which the Ki in experiment [4] stood at 8 µM.
Turning to `C[C@H](CO)Nc1nc(SCc2cccc(F)c2F)nc2[nH]c(=O)cnc12`, the Kd in experiment [5] was 1 µM.
For the compound `c1cc(CN2CCCNCCNCCCNCC2)cc(CN2CCCNCCNCCCNCC2)n1`, the Ki in experiment [4] came out at 0.85 µM.
The same measure, in the same setting: next, `C1CNCCNCCCN(CCCN2CCCNCCNCCCNCC2)CCNC1`: 0.18 µM.
With `Cc1ccc(CN2CC[C@@H](NC(=O)CNC(=O)c3cccc(C(F)(F)F)c3)C2)c(C)c1`, in experiment [6], the Ki was 0.316 µM.
On to `Cc1ccc(-c2ccc3c(c2)C=C(C(=O)Nc2ccc(C[N+](C)(C)C4CCOCC4)cc2)CCC3)cc1.[Cl-]`, for which the Ki in experiment [6] was 0.0631 µM. The compound further came in with a half-inhibitory concentration (IC50) in experiment [3] of 0.019 µM. Also, the negative logarithm of the IC50 (pIC50) in [2] is reported as 4.5.
For the compound `O=C(/C=C/c1ccc(Cl)c(Cl)c1)NCCCCCN1CCC(c2c[nH]c3ccc(O)cc23)CC1`, the Ki in experiment [6] was 0.1 µM.
Turning to `CCNC(=O)c1cnc(N2CCN(C3CCN(Cc4ccc(Cl)cc4)CC3)[C@@H](CC)C2)c(Cl)c1`, the IC50 in experiment [1] and in [2] was 0.0158 µM throughout.
Regarding `CC[C@@H](NC1C(=O)C(=O)C1Nc1cccc(C(=O)N(C)C)c1O)c1ccc(C)o1` (some centres not stated), the Kd in [5] is 10000 µM.
In turn, `CCCC[C@H]1C[C@@H](N(C)C(C)C)CC[C@H]1NC(=O)CNC(=O)c1cccc(C(F)(F)F)c1` displayed an IC50 in [7] of 0.0025 µM.
On to `O=C(C1=C(O)C(=O)N(c2nnc(SCc3ccc(Cl)cc3)s2)C1c1cccs1)c1cc2ccccc2o1` (configuration not stated), for which the IC50 in experiment [8] is 2 µM.
For the compound `O=CNC(=C(Cl)Cl)[P+](c1ccccc1)(c1ccccc1)c1ccccc1.[O-][Cl+3]([O-])([O-])[O-]`, the 50% inhibitory concentration (IC50) in [9] stood at 27 µM.
In the case of `COc1ccccc1Oc1cccc(CN2CCC(O)(c3ccccc3C(=O)O)CC2)c1`, in [10], the pIC50 is 7.5.
Still for that read-out and setting: next, `CCNS(=O)(=O)c1ccc(OC)cc1C1(O)CCN(Cc2cccc(Oc3ccccc3OC)c2)CC1`: 7.8; `COc1ccccc1Oc1cccc(CN2CCC(NC(=O)C3CC(=O)Nc4ccccc43)CC2)c1` (configuration not stated): 7.3.
For the compound `CCO/N=C(\c1ccc(Br)cc1)C1CCN(C2(C)CCN(C(=O)c3c(C)cc[n+]([O-])c3C)CC2)CC1` [ANCRIVIROC], in experiment [9], the IC50 was 0.016 µM.
As to `Cc1nnc(C(C)C)n1[C@H]1C[C@H]2CC[C@@H](C1)N2CC[C@H](NC(=O)C1CCC(F)(F)CC1)c1ccccc1` [MARAVIROC], the IC50 in experiment [3] is 0.0002 µM.
